In data set [1] the test system is HPA axis. The settings on record: 20 mg intra-articular injection; day 3; transient; cited from earlier work.
The conditions of data set [2]: cited from earlier work.
The conditions of data set [3]: TCA in rat plasma, i.v. 50 mg/kg bolus + 23 mg/kg/h infusion, cited from earlier work.
Data set [4] relates to HPA axis (corticosterone levels). Nature of the data set: Inhibition of the HPA axis (corticosterone levels) in rats, PK-PD analysis. The format is in vivo. The settings on record: rat, PK-PD inhibitory model.
Data set [5] deals with rat model of osteoarthritis of the knee (PGPS). Nature of the data set: Rat PGPS model of osteoarthritis of the knee: histopathology of the knees. The settings on record: inflammatory milieu. It counts as in vivo. On the procedure: Efficacy of single intra-articular (IA) doses of FX006 (TCA in 75:25 PLGA formulation microparticles) and TCA IR (immediate release) was evaluated in a rat model of osteoarthritis of the knee via sensitization and challenge by peptidoglycan polysaccharide (PGPS). The model involves priming the animals with an intra-articular injection of PGPS in the right knee. The following day, any animals with no knee discomfort were eliminated from the test article groups and placed into the baseline group. Two weeks later, knee inflammation was reactivated by a tail vein injection of PGPS, 2.5 hr following IA dosing with FX006 or TCA IR at the doses selected (n=10/group). Differences in weight-bearing and gait (as a measure of joint pain experienced by the animals), histopathology, plasma PK etc. were evaluated.

For data set [6], the system named is endogenous cortisol production. Nature of the data set: Steady-state doses and plasma concentrations for target suppression of endogenous cortisol production. Also noted: species or system human. The settings on record: steady-state HPA axis suppression. Here is the method:
In this regard, it has been determined that standard doses of familiar corticosteroids, when examined from the viewpoint of steady-state HPA axis suppression (i.e., after desensitization has occurred), provide clinically useful benchmarks. For example, while oral prednisolone given at 20 mg QD produces a 73% cortisol suppression, even 5 mg QD (considered a “low dose”) is associated with a 40% suppression of endogenous cortisol production. […]
As a result of these clinical findings, the dose range to achieve clinically useful analgesia, with minimal or controlled modulation of the HPA axis, at steady state concentrations of various corticosteroids has been determined (Table 2). […]
In addition, with these continuous daily doses of intra-articular corticosteroids, it is possible to determine the related systemic plasma level concentrations (Table 3) that will produce the target cortisol inhibition and not beyond, this while retaining clinically important anti-inflammatory and analgesic activity within the joint. […] The levels calculated in Table 3 were purely hypothetical calculations based on human data with immediate release-level doses from the literature. […] A given level of plasma concentration may actually provide less inhibition that would have been predicted or calculated using the human IR levels from the literature. […]

≈ marks a conversion by molar mass, not a printed value. Where “and” joins values, the source holds several entries; their conditions need not be identical. Equal values may be shown once. Read-outs that look alike come from different tables or passages of the source.

`CC(C)(C)CC(=O)OCC(=O)[C@@]12OC(C)(C)O[C@@H]1C[C@H]1[C@@H]3CCC4=CC(=O)C=C[C@]4(C)[C@@]3(F)[C@@H](O)C[C@@]12C` [triamcinolone hexacetonide]: the HPA-axis suppression in data set [1] is 75%. Moreover, in data set [2] (20 mg intra-articular injection, day 3), the plasma levels is 3 to 4 ng/mL.

Triamcinolone Acetonide Phosphate: in data set [3] (Mean ± SD), the CL was 15.6 ± 3.13 mL/min/kg, the T1/2β is given as 2.71 ± 1.09 h, the Vc was 0.944 ± 0.314 L/kg and the fu is 0.093 ± 0.015. Besides, in data set [3] (Mean ± SD), the k21 was 0.937 ± 0.261 h^1. Further, in data set [3] (individual rats 1-3), the CL was 19.2 mL/min/kg and 13.2 mL/min/kg and 14.5 mL/min/kg; the T1/2β is 1.55 h and 3.71 h and 2.87 h; the Vc was 0.684 L/kg and 0.856 L/kg and 1.29 L/kg; the fu was 0.084 and 0.110 and 0.085. Moreover, in data set [3] (individual rats 1-3), the k12 was 1.64 h^1 and 1.79 h^1 and 1.59 h^1; the k21 was 1.04 h^1 and 0.640 h^1 and 1.13 h^1.

What is called IC50 is the concentration at which inhibition is half-maximal. Take `CC1(C)O[C@@H]2C[C@H]3[C@@H]4CCC5=CC(=O)C=C[C@]5(C)[C@@]4(F)[C@@H](O)C[C@]3(C)[C@]2(C(=O)CO)O1` [triamcinolone acetonide, 9α-Fluoro-11β,16α,17α,21-tetrahydroxy-1,4-pregnadiene-3,20-dione 16,17-acetonide]: the “systemic TCA level at which Emax of corticosterone inhibition was achieved” value in data set [4] was 50 to 80 ng/mL. The IC50 in data set [4] (read-out: IC50 of corticosterone inhibition versus systemic TCA levels) is approximately 1 ng/mL (≈ 2.3 nM). Besides, the effect on cartilage result in data set [5] is listed as “no deleterious effect on cartilage”. Further, the “contribution of the immediate release component to the plasma concentration” value in data set [2] (40 mg immediate release, intra-articular, by day 12) is “less than 0.1 ng/ml”. The peak plasma concentration entry in data set [2] (40 mg immediate release, intra-articular, day 1) is recorded as “approximately 10 ng/ml”.

Turning to `C[C@]12C=CC(=O)C=C1CC[C@@H]1[C@@H]2[C@@H](O)C[C@@]2(C)[C@H]1CC[C@]2(O)C(=O)CO` [prednisolone, 11β,17,21-trihydroxypregna-1,4-diene-3,20-dione], the “suppression of endogenous cortisol production” value in data set [6] (oral 5 mg QD) is recorded as 40%. The same molecule came in with a cortisol suppression in data set [6] (oral 20 mg QD) of 73%.

Source of the values: patent US10624905B2, “Corticosteroids for the treatment of joint pain” (Flexion Therapeutics, Inc., priority 2013, dated 2020).
